ChEMBL document CHEMBL1201862, “PubChem BioAssay data set” (2004)
The source made the active and inactive calls.

How the values were obtained:
[1] = target: T1, Small ubiquitin-related modifier 1 (Homo sapiens, UniProt P63165); test: SUMO1 protein interaction blockers, potency – biochemical, fluorescence polarization, uHTS hits, dose response (AID 624382); type: functional; details: read-out: IC50_Mean
[2] = target: T1, Small ubiquitin-related modifier 1; test: SUMO1 protein-protein binding blockers, potency – biochemical, FRET, dose response (AID 624383); type: functional; details: read-out: IC50_Mean
cells = type: functional
[3] = microbe, parasite or virus in culture; type: functional; details: Mycobacterium tuberculosis
[4] = viability loss in HepG2 hepatoma cells – cell-based, ATP luminescence, cherry-pick, activator set 2, cytotoxicity control, dose response (AID 1053143); type: functional
[5] = target: 5-hydroxytryptamine receptor 2A (Mus musculus, UniProt P35363); type: functional, cell-based;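 further: CHO-K1 cells with tagged receptor and beta-arrestin; agonist potency measured as compound-induced activation of the receptor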
[6] = target: T2, Methionyl-tRNA synthetase, putative (Trypanosoma brucei brucei, UniProt Q38C91); type: functional, Trypanosoma brucei brucei strain 927/4 GUTat10.1
T2 sequence (Q38C91 whole entry): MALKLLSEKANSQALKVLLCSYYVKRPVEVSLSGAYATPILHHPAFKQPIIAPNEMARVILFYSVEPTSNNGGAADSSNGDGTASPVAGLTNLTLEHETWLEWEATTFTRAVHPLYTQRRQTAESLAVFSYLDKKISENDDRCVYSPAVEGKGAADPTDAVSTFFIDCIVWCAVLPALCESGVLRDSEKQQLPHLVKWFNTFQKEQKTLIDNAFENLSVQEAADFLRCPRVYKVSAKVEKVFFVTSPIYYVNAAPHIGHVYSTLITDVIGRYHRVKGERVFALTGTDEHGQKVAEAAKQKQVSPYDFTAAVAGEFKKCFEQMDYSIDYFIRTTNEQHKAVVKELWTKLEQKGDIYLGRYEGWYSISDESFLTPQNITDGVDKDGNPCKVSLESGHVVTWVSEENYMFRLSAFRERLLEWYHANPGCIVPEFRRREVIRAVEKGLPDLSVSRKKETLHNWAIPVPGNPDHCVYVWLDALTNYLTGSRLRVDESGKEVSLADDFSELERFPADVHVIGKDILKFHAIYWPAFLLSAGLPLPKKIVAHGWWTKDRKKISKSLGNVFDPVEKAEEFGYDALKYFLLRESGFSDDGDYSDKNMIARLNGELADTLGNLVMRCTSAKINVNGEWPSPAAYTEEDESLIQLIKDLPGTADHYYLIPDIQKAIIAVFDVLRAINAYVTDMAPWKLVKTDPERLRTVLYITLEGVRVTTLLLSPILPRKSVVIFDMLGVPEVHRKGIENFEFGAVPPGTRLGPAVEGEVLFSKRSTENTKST

[7] = target: T2, Methionyl-tRNA synthetase, putative; type: functional, Trypanosoma brucei brucei strain 927/4 GUTat10.1; remark: listed apart in the source
[8] = Counterscreen for inhibitors of Trypanosoma brucei methionyl tRNA synthetase (MetRS): Luminescence-based cell-based high throughput dose response assay to identify compounds that are cytotoxic to Jurkat human T lymphocyte cells.; type: functional
[9] = tested on: Streptococcus sp. 'group A'; test: Streptococcus pyogenes SK(-)GAS viability under kanamycin – luminescence, BacTiterGlo, confirmation, counter-screen for streptokinase expression inhibitor project, dose response (AID 1900); type: functional, organism-based
[10] = target: T3, Probable nicotinate-nucleotide adenylyltransferase (Staphylococcus aureus (strain N315), UniProt P65502); type: functional, Staphylococcus aureus subsp. aureus N315; details: read-out: IC50_Mean;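 on IC50 Mean: confirmatory dose-response retesting of NadD inhibitor hits first found in an ultra-high-throughput screen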
Aminopeptidase N = target: T4, Aminopeptidase N (Plasmodium falciparum FcB1/Columbia, UniProt O96935); test: malaria alanyl aminopeptidase activity blockers – biochemical, fluorogenic H-Leu-NHMec substrate, 1536-well (AID 1445); design: species or system Plasmodium falciparum 3D7, 3D7
T4 sequence (O96935 whole entry): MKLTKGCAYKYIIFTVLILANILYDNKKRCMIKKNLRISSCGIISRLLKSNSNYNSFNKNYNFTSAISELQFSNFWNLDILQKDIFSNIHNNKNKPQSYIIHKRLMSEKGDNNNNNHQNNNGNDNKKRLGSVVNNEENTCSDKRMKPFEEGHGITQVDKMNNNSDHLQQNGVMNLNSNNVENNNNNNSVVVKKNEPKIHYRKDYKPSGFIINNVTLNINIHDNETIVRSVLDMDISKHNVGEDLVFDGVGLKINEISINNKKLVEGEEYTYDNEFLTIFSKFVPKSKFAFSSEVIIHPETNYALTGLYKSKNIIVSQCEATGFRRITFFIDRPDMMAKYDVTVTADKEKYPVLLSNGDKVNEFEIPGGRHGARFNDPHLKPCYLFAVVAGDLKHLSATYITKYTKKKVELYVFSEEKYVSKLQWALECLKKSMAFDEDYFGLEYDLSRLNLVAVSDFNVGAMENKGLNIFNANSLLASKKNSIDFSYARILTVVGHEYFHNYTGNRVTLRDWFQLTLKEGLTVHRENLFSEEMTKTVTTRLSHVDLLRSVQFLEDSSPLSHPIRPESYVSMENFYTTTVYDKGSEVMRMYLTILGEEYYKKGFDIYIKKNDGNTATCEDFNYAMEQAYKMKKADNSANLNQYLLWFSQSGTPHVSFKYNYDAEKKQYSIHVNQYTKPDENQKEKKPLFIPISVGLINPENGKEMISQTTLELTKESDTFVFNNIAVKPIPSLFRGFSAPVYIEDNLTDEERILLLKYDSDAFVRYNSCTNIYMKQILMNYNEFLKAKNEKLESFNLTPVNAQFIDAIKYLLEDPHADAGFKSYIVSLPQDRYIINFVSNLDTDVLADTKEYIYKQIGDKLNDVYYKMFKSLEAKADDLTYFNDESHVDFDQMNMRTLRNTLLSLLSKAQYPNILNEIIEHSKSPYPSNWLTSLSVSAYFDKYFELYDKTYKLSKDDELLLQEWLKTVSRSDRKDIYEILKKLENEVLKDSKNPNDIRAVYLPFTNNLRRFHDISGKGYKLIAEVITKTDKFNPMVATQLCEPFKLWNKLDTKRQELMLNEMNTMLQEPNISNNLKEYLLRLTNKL

Streptococcus = test: GAS UMAA2166 growth inhibition – luminescence, BacTiterGlo, counter-screen for streptokinase expression inhibitor project, dose response (AID 1915); type: functional, organism-based;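 further: potency for reduction of bacterial viability or growth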
[11] = target: T3, Probable nicotinate-nucleotide adenylyltransferase; type: functional, Staphylococcus aureus subsp. aureus N315
[12] = inhibition of ADAM10 peptide cleavage – biochemical, FRET peptide substrate, recombinant human ADAM10, selectivity assay for ADAM17 exosite inhibitor project, dose response (AID 743259);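 further: ADAM10 enzyme cleaving a FRET peptide substrate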
[13] = target: Disintegrin and metalloproteinase domain-containing protein 17 (Homo sapiens, UniProt P78536); test: exosite inhibitors of ADAM17, dose response, biochemical (AID 743260)
Fatty acid synthase = Fatty acid synthase (Homo sapiens, UniProt P49327); test: inhibition of human FAS-TE enzyme activity – biochemical, kinetic fluorescence intensity, dose response (AID 624326); type: functional;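 further: rate of fluorescence rise from hydrolysis of a fluorogenic O-methyl fluorescein ester substrate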
[14] = HGIII-sPLA2 enzyme inhibition potency – biochemical, QFRET, IC50, dose response (AID 743457);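 further: green fluorescence rise as the enzyme cleaves BODIPY PC-A2 in liposomes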
[15] = Counterscreen for activators of the function of SWI/SNF related, matrix associated, actin dependent regulator of chromatin, subfamily a, member 2 (SMARCA2, BRM): Luminescence-based cell-based high throughput dose response assay to identify non-selective compounds using the VP16 reporter assay.; type: functional
[16] = target: SWI/SNF-related matrix-associated actin-dependent regulator of chromatin subfamily A member 2 (Homo sapiens, UniProt P51531); test: Luminescence-based cell-based high throughput dose response assay to identify activators of the function of SWI/SNF related, matrix associated, actin dependent regulator of chromatin, subfamily a, member 2 (SMARCA2, BRM).; type: functional
[17] = viability of uninfected HEp-2 cells – cell-based, HTS, cytotoxicity control for RSV inhibitor project, dose response (AID 2410); type: functional; details: human respiratory syncytial virus
[18] = target: ADP-ribosylation factor GTPase-activating protein 1 (Rattus norvegicus, UniProt Q62848); test: Fluorescence polarization-based biochemical high throughput dose response screening assay to identify inhibitors of ADP-ribosylation factor GTPase activating protein 1 (ARFGAP1).; type: functional
[19] = target: Photoreceptor-specific nuclear receptor (Homo sapiens, UniProt Q9Y5X4); test: ligands suppressing NR2E3 nuclear receptor activity – biochemical, TR-FRET, dose response (AID 463256); type: functional
[20] = target: Peroxisome proliferator-activated receptor gamma/Nuclear receptor corepressor 2 (Homo sapiens, UniProt P37231+Q9Y618); test: Counterscreen for NR2E3 inverse agonists: TR-FRET-based biochemical high throughput dose response assay to identify inverse agonists of the interaction between peroxisome proliferator-activated receptor gamma (PPARg) and nuclear receptor co-repressor 2 (NCOR2).; type: functional
[21] = HEK-293T viability loss after treatment – luminescence, T-cell screen hits, cytotoxicity control for TCR NF-kB inhibitor project, dose response (AID 489026); type: functional, cell-based;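 further: cells exposed to compound about 14 hours before the viability readout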

Sequence of SWI/SNF-related matrix-associated actin-dependent regulator of chromatin subfamily A member 2 (P51531 whole entry): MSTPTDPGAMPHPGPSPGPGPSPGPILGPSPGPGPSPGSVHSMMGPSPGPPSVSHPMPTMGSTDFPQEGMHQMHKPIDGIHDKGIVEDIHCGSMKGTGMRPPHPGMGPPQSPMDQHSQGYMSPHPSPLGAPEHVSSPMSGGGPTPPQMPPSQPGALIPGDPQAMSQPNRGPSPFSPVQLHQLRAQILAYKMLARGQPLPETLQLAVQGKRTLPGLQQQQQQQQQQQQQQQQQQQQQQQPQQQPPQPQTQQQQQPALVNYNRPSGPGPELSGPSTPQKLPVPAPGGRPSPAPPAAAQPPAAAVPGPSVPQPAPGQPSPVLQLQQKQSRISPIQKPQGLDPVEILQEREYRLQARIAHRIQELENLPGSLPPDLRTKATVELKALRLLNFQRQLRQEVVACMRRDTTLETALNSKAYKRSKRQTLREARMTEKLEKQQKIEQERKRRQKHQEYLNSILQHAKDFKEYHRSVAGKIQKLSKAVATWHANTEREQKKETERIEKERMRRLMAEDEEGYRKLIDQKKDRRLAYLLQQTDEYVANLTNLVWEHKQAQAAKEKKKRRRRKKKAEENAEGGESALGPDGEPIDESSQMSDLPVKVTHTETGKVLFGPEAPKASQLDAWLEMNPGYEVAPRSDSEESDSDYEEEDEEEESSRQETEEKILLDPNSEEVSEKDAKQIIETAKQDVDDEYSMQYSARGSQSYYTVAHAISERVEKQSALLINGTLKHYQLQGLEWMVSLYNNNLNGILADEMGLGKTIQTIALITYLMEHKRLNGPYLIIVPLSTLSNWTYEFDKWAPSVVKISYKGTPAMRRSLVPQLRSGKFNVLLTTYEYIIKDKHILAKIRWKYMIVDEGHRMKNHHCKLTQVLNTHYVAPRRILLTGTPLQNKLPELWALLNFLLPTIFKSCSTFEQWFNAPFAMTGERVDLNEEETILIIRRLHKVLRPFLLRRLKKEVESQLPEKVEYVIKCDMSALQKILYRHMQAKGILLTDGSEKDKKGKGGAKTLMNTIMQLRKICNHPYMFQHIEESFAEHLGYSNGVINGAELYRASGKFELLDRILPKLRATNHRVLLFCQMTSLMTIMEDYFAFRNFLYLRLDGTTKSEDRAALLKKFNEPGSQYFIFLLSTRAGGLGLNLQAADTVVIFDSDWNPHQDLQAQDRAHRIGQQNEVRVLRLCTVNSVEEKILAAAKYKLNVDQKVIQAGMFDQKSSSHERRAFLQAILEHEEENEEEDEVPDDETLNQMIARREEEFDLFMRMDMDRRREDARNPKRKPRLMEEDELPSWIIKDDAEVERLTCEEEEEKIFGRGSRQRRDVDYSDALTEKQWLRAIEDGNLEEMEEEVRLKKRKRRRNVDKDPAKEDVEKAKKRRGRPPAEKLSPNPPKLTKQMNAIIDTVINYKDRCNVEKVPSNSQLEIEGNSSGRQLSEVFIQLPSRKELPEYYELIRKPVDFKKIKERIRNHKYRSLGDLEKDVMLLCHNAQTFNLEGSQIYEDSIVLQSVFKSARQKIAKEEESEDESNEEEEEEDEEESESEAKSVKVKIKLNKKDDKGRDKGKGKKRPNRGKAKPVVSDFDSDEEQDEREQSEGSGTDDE
T3 sequence (P65502 whole entry): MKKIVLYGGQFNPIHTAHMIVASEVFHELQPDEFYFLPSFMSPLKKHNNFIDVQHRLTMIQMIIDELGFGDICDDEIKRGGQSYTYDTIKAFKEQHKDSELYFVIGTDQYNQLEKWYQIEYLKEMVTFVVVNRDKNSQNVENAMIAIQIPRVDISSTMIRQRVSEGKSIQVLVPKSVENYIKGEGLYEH
T1 sequence (P63165 whole entry): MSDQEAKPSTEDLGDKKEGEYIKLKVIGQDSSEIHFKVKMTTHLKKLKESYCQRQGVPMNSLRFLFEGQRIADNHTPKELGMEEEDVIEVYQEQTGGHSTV
Sequence of ADP-ribosylation factor GTPase-activating protein 1 (Q62848 whole entry): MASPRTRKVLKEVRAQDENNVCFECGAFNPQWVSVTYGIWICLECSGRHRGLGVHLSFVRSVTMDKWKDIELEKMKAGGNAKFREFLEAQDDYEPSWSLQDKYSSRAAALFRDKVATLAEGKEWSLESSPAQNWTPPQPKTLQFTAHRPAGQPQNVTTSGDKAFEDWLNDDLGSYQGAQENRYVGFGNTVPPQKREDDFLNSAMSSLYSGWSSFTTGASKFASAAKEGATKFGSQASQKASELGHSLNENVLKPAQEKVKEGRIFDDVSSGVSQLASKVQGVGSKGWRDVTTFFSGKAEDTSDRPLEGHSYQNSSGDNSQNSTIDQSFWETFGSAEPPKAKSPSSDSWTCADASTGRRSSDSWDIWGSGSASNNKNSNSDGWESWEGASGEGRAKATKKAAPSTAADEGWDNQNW
Sequence of Disintegrin and metalloproteinase domain-containing protein 17 (P78536 whole entry, the tested form may be a part): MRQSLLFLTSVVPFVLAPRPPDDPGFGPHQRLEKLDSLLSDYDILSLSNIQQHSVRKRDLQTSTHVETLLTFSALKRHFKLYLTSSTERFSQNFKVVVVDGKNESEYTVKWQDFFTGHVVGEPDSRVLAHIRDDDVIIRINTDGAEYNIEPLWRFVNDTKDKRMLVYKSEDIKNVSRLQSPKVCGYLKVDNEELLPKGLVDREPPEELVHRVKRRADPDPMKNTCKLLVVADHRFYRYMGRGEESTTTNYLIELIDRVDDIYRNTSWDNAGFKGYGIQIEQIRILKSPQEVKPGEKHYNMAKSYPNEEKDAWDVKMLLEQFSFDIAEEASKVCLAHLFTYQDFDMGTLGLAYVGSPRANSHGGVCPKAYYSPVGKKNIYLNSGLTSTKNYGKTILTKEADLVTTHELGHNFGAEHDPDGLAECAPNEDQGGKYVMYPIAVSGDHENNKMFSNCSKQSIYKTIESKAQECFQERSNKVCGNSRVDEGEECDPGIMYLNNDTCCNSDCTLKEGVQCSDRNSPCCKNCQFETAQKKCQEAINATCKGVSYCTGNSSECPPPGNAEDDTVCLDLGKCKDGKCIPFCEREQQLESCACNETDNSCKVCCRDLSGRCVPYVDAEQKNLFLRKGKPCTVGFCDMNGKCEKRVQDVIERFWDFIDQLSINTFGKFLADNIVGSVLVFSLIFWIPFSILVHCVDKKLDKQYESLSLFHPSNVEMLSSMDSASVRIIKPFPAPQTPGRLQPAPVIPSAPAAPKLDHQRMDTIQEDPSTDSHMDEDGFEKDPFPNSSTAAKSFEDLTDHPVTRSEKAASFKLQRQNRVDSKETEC
Sequence of 5-hydroxytryptamine receptor 2A (P35363 whole entry): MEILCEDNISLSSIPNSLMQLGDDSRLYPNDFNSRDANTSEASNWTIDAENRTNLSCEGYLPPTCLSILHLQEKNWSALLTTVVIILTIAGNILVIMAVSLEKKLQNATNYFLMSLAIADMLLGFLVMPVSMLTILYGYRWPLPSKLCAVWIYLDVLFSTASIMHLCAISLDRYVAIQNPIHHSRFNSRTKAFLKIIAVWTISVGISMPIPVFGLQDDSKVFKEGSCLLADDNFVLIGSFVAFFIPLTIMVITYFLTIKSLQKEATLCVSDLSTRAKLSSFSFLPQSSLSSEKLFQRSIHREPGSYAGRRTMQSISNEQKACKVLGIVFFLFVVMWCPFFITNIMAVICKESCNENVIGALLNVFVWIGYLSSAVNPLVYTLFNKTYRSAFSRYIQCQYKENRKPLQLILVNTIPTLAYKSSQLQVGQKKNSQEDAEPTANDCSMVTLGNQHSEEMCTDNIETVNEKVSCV
Sequence of Photoreceptor-specific nuclear receptor (Q9Y5X4 whole entry): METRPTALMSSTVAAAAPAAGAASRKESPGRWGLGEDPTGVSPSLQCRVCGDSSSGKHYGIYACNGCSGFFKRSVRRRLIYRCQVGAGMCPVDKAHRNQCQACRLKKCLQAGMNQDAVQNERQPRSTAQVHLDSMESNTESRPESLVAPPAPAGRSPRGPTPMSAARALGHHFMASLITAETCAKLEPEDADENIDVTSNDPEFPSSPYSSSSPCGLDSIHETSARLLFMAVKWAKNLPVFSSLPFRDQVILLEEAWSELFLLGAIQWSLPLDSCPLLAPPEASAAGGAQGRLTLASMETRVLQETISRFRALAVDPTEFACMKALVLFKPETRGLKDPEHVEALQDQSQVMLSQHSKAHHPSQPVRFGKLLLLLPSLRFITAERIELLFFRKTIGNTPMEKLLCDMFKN

C/C=C/C=C\C(=O)Nc1cccc(C2=NOC3(C2)C[C@H](C(N)=O)N(C(=O)CC#N)C3)c1 (stereo partly specified)
IC50 [1]: > 66.6 µM (inactive)
IC50 [2]: 3.34 µM (active)

Oc1cc(NCc2cccnc2)ccc1-c1nc2ccccc2o1
IC50 (cells): 14.1 µM (active)
CC50 [3]: > 40 µM (active)
AC50 [4]: 26 µM (active)

NC[C@H](O)c1ccc(O)c(O)c1 [NOREPINEPHRINE BITARTRATE]
EC50 [5]: 0.806 µM (active)

O=C(CCCNC(=O)c1ccc(Cl)cc1)Nc1ccc(Br)cc1
IC50 [6]: 7.11 µM (active)
IC50 [7]: 119 µM (inactive)
IC50 [8]: 83.4 µM (inactive)

O=C(NNC(=O)c1ccc(-n2cncn2)c([N+](=O)[O-])c1)c1ccccc1
IC50 [6]: 11.9 µM (inactive)
IC50 [7]: 32.3 µM (inactive)
IC50 [8]: 83.3 µM (inactive)

COc1ccc(NC(=O)CSc2nc(O)c3c(C(F)(F)F)cc(-c4cccs4)nc3n2)c(OC)c1
EC50 [9]: 11.6 µM (active)
IC50 [10]: 32.1 µM (active)
IC50 (Aminopeptidase N): 56.5 µM (active)
EC50 (Streptococcus): 124 µM (active)
IC50 [11]: 4.89 µM (active)

Cc1ccc(NC(=O)NNC(=O)Cn2nc(-c3ccccc3)c(-c3ccccc3)c(C#N)c2=O)cc1
IC50 [12]: > 69.5 µM (inactive)
IC50 [13]: > 69.5 µM (inactive)
IC50 (Fatty acid synthase): 4.64 µM (active)

CN1/C(=C\C(=O)Nc2ccc(F)cc2)C(C)(C)c2ccccc21
IC50 [14]: > 122 µM (inactive)

c1ccc2c(c1)nnn2-c1ncnc2sccc12
EC50 [15]: > 91.2 µM (inactive)
EC50 [16]: > 91.2 µM (inactive)
CC50 [17]: 46.8 µM (active)

COc1cc(NC(=O)COc2ccc([N+](=O)[O-])cc2)ccc1NC(=O)c1ccco1
IC50 [18]: 33.6 µM (inactive)

CC1(C)Cc2c(sc(NC(=O)COc3cccc4ccccc34)c2C#N)C(C)(C)N1
EC50 [15]: > 91.2 µM (inactive)
EC50 [16]: > 10.1 µM (inactive)
IC50 [19]: 8.84 µM (active)
IC50 [20]: 8.33 µM (active)
IC50 [21]: > 80 µM (inactive)

Cc1occc1C(=O)Nc1ccc2c(c1)OCCO2
AC50 [4]: > 52 µM (inactive)
